# Laboratory results reported in patent publication US11225469B2, “Inhibitors of phosphoglycerate dehydrogenase (PHGDH) and uses thereof” (Whitehead Institute for Biomedical Research, priority 2015, dated 2022).
# pIC50: −log10 of the molar value.
# Target: PHGDH (Homo sapiens (Human), UniProt O43175)
# Test: PHGDH inhibition, coupled assay with PSAT1/PSPH and diaphorase/resazurin readout
# Assay type: biochemical
# Settings: Table E9; mixture with PSAT1, PSPH; diaphorase/resazurin reporter
# Description: Compounds of the invention were assayed for inhibition of the activity phosphoglycerate dehydrogenase (PHGDH). The compounds were assayed in a mixture comprising PHGDH, PSAT1, PSPH, NADH, and glutamate. Diaphorase and resazurin were used as a fluorescent reporter system.
# In this endogenous pathway coupled assay, the production of NADH by PHGDH was measured through the diaphorasemediated reduction of resazurin (See, e.g., Chakraborty, S., Sakka, M., Kimura, T. & Sakka, K. “Characterization of a dihydrolipoyl dehydrogenase having diaphorase activity of Clostridium kluyveri.” BioscL Biotechnol. Biochem. 72, 982-988 (2008)).
# PHGDH assay buffer contained 50 mM TEA pH 8.0, 10 mM MgCl2, 0.05% BSA, and 0.01% Tween-20. PHGDH enzyme buffer consisted of assay buffer with 20 nM PHGDH and 0.2 mg/mL diaphorase. PHGDH substrate buffer contained 0.3 mM NAD 1.25 mM glutamate, 0.1 mM 3-phosphoglycerate, 0.2 mM resazurin, 1 μM PSAT1, and 1 μM PSPH. qHTS was performed in 1536-well plates dispensed with a BioRAPTR FRD. Each well contained equal volumes of substrate buffer and assay buffer. Plates were read at 0 minutes and 20 minutes at room temperature with a ViewLux uHTS Microplate Imager (PerkinElmer). Follow-up assays were performed in black 384-well plates (Greiner) in 20 μL of enzyme buffer to which compounds were added in dose-response with an HP D300 digital dispenser (Hewlett-Packard), followed by addition of 20 μL of substrate buffer. Plates were incubated at room temperature (25° C.) and read at 0 and 20 minutes with a Spectramax M5 plate reader (Molecular Devices) in fluorescence intensity mode with a λex=550 nm and λem=600 nm (emission cutoff=590 nm).
# Chain of PHGDH (O43175 whole entry): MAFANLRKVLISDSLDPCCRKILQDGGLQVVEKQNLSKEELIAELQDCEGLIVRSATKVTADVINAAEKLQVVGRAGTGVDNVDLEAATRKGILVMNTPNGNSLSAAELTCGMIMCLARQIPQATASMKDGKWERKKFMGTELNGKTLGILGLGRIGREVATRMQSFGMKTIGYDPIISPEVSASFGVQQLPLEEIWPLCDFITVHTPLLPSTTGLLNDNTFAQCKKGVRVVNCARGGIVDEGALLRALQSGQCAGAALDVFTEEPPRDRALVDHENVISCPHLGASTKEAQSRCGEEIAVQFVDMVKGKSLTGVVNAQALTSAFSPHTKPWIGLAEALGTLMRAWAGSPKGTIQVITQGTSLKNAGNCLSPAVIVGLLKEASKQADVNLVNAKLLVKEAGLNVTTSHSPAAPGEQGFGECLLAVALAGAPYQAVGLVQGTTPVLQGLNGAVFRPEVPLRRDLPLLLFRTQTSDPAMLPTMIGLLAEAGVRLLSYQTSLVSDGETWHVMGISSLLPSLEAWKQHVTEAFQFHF
row,SMILES,pIC50
1,"Cc1cc(C)nc(NC(=S)N2CCN(Cc3ccccn3)CC2)c1 [Compound 287, N-(4,6-dimethylpyridin-2-yl)-4-(pyridin-2-ylmethyl)piperazine-1-carbothioamide]",≤ 4.70
2,Cc1cc(C)nc(NC(=S)N2CCC(CN3CCCCC3)CC2)c1 [Compound 271],≤ 4.70
3,Cc1cc(C)nc(NC(=S)N2CCN(c3ccc4ccccc4n3)CC2)c1 [Compound 85],4.70 to 5.00
4,COc1ccccc1CN1CCN(C(=S)Nc2cc(C)cc(C)n2)CC1 [Compound 286],4.70 to 5.00
5,CC(=O)c1ccc(N2CCN(C(=S)Nc3cc(C)ccn3)CC2)cc1 [Compound 14],≤ 4.70
6,Cc1cc(C)nc(NC(=S)N2CCN(Cc3ccccc3Cl)CC2)c1 [Compound 289],4.70 to 5.00
7,Nc1nc(NC(=S)N2CCN(c3cccc(C(F)(F)F)c3)CC2)n[nH]1 [Compound 231],≤ 4.70
8,Cc1ccnc(NC(=S)N2CCN(c3ccc(Cl)cc3Cl)CC2)c1 [Compound 172],5.00 to 5.30
9,Cc1cc(C)nc(NC(=S)N2CCN(Cc3ccccc3)CC2)c1 [Compound 274],4.70 to 5.00
10,COc1cc(N2CCN(C(=S)Nc3cc(C)cc(C)n3)CC2)cc(C(F)(F)F)c1 [Compound 136],4.70 to 5.00
11,Cc1cc(C)nc(NC(=S)N2CCN(c3ccc(N[S+](C)(=O)[O-])nn3)CC2)c1 [Compound 83],≤ 4.70
12,Cc1cc(C)nc(NC(=S)N2CCN(c3ccc(Cl)cc3F)CC2)c1 [Compound 219],5.00 to 5.30
13,COc1ccccc1N[S+](=O)([O-])c1cc(NC(=O)Cc2ccc(Cl)cc2Cl)ccc1N1CCCC1 [Compound 248],≤ 4.70
14,Cc1ccnc(NC(=O)N2CCN(c3cccc(C(F)(F)F)c3)CC2)c1 [Compound 3],≤ 4.70
15,Cc1cccc(NC(=S)N2CCN(c3cccc(C(F)(F)F)c3)CC2)c1 [Compound 23],≤ 4.70
16,Cc1cc(C)nc(N/C(=N/C#N)N2CCN(c3cccc(C(F)(F)F)c3)CC2)c1 [Compound 95],≤ 4.70
17,Cc1ccc2nc(NC(=S)N3CCN(c4cccc(C(F)(F)F)c4)CC3)[nH]c2c1 [Compound 239],4.70 to 5.00
18,Cc1cc(C)nc(NC(=S)N2CCN(c3cncs3)CC2)c1 [Compound 157],≤ 4.70
19,Cc1cc(C)nc(NC(=S)N2CCN(c3cnccn3)CC2)c1 [Compound 118],≤ 4.70
20,Cc1cc(C)nc(NC(=S)N2CCN(c3ccc(Cl)c(C(F)(F)F)c3)CC2)c1 [Compound 211],4.70 to 5.00
21,"Cc1cc(C)nc(NC(=S)N2CCN(Cc3ccc(C(F)(F)F)cc3)C(C(=O)O)C2)c1 (stereo not shown) [Compound 295, 4-((4,6-dimethylpyridin-2-yl)carbamothioyl)-1-(4-(trifluoromethyl)benzyl)piperazine-2-carboxylic acid]",5.00 to 5.30

row,SMILES,pIC50
1,Cc1cc(C)nc(NC(=S)N2CCN(Cc3ccc(C(F)(F)F)cc3)C(C)C2)c1 (stereo not shown) [Compound 275],> 5.30
2,Cc1ccnc(NC(=S)NCCNc2cccc(C(F)(F)F)c2)c1 [Compound 22],5.00 to 5.30
3,FC(F)(F)c1cccc(N2CCN(C(=S)Nc3nc[nH]n3)CC2)c1 [Compound 233],5.00 to 5.30
4,Cc1cc(C)nc(NC(=S)N2CCC(NC(=O)c3ccc(C(F)(F)F)cc3)CC2)c1 [Compound 266],> 5.30
5,Cc1cc(C)nc(NC(=S)N2CCC(C(=O)N3CCCCC3)CC2)c1 [Compound 260],≤ 4.70
6,Cc1cc(C)nc(NC(=S)N2CCN(CC3CCCCC3)CC2)c1 [Compound 255],> 5.30
7,Cc1ccnc(NC(=S)N2CCN(c3ncc(C(F)(F)F)cc3Cl)CC2)c1 [Compound 176],5.00 to 5.30
8,CCOC(=O)N1CCN(C(=S)Nc2cc(C)cc(C)n2)CC1 [Compound 259],≤ 4.70
9,FC(F)(F)c1cccc(N2CCN(C(=S)Nc3cc(C(F)(F)F)ccn3)CC2)c1 [Compound 26],5.00 to 5.30
10,Cc1cc(C)nc(NC(=S)N2CCN(c3ncccc3C(F)(F)F)CC2)c1 [Compound 113],4.70 to 5.00
11,Cc1cc(C)nc(NC(=S)N2CCN(c3ccc(C(F)(F)F)cc3C(F)(F)F)CC2)c1 [Compound 209],5.00 to 5.30
12,COc1ccnc(NC(=S)N2CCN(c3cc(C(F)(F)F)cc(C(F)(F)F)c3)CC2)c1 [Compound 179],> 5.30
13,Cc1cc(C)nc(NC(=S)N2CCN(c3cncc4ccccc34)CC2)c1 [Compound 146],4.70 to 5.00
14,Cc1ccnc(NC(=S)N2CCc3cccc(C(F)(F)F)c3C2)c1 [Compound 59],4.70 to 5.00
15,Cc1cc(C)nc(NC(=S)N2CCN(c3coc4ccccc34)CC2)c1 [Compound 86],4.70 to 5.00
16,Cc1ccnc(NC(=S)N2CC3CN(c4cccc(C(F)(F)F)c4)CC3C2)c1 (stereo not shown) [Compound 45],4.70 to 5.00
17,Cc1cc(C)nc(NC(=S)N2CCN(c3ccc(Cl)cc3[N+](=O)[O-])CC2)c1 [Compound 218],5.00 to 5.30
18,Cc1cc(C)nc(NC(=S)N2CCC(Cc3ccccc3)CC2)c1 [Compound 254],> 5.30
19,Cc1cc(C)nc(NC(=S)N2CCN(c3cc(C(F)(F)F)nc4ccccc34)CC2)c1 [Compound 122],> 5.30
20,Cc1cc(C)nc(NC(=S)N2CCC(NC(=O)c3cccc(C(F)(F)F)c3)CC2)c1 [Compound 263],> 5.30
21,Cc1cc(C)nc(NC(=S)N2CCN(Cc3ccc(C(F)(F)F)cc3)[C@@H](C)C2)c1 [Compound 297],> 5.30

row,SMILES,pIC50
1,Cc1ccnc(NC(=S)N2CCN(c3cccc(Cl)c3Cl)CC2)c1 [Compound 171],5.00 to 5.30
2,Cc1ccnc(NC(=S)N2CCN(c3ccc(Cl)c(Cl)c3)CC2)c1 [Compound 173],5.00 to 5.30
3,Cc1cc(C)nc(NC(=S)N2CCN(Cc3ccccc3C)CC2)c1 [Compound 276],≤ 4.70
4,Cc1cc(C)nc(NC(=S)N2CCN(c3cccc(Cl)c3Cl)CC2)c1 [Compound 93],5.00 to 5.30
5,COc1cccc(NC(=S)N2CCN(c3cccc(Cl)c3Cl)CC2)n1 [Compound 189],4.70 to 5.00
6,Cc1ccnc(NC(=S)N[C@H]2CCN(c3cccc(C(F)(F)F)c3)C2)c1 [Compound 43],≤ 4.70
7,Cc1cc(C)nc(NC(=S)N2CCN(Cc3ccccc3F)CC2)c1 [Compound 288],4.70 to 5.00
8,Cc1cc(C)nc(NC(=S)N2CCN(c3ncnc4sccc34)CC2)c1 [Compound 120],≤ 4.70
9,Cc1cc(C)nc(NC(=S)N2CCN([S+](=O)([O-])c3cccc(C(F)(F)F)c3)CC2)c1 [Compound 100],> 5.30
10,Cc1ccnc(NC(=S)N2CCN(c3cccc(N(C)C)c3)CC2)c1 [Compound 6],4.70 to 5.00
11,Cc1cc(C)nc(NC(=S)N2CCN(c3ncc(Cl)cc3Cl)CC2)c1 [Compound 81],5.00 to 5.30
12,Cc1cc(C)nc(NC(=S)N2CCN(c3ccsc3)CC2)c1 [Compound 166],≤ 4.70
13,Cc1ccnc(NC(=S)N[C@@H]2CCN(c3cccc(C(F)(F)F)c3)C2)c1 [Compound 42],≤ 4.70
14,Cc1cc(C)nc(NC(=S)N2CCN(c3ccc(F)c(F)c3F)CC2)c1 [Compound 208],4.70 to 5.00
15,Cc1ccnc(NC(=S)NCCN(C)c2cccc(C(F)(F)F)c2)c1 [Compound 21],≤ 4.70
16,Cc1cc(C)nc(NC(=S)N2CCN(c3cc(C(F)(F)F)nc(C)n3)CC2)c1 [Compound 153],4.70 to 5.00
17,Cc1cc(C)nc(NC(=S)N2CCN(Cc3ccc(C(F)(F)F)cc3)C(c3ccccc3)C2)c1 (stereo not shown) [Compound 273],4.70 to 5.00
18,S=C(Nc1cc(Cl)ccn1)N1CCN(c2cc(Cl)cc(Cl)c2)CC1 [Compound 197],≤ 4.70
19,Cc1ccnc(NC(=S)N2CCN(C)CC2)c1 [Compound 16],≤ 4.70
